In patent US8017168B2, “High-potency sweetener composition with rubisco protein, rubiscolin, rubiscolin derivatives, ace inhibitory peptides, and combinations thereof, and compositions sweetened therewith” (The Coca-Cola Company, priority 2006, dated 2011):
Ends that are not written are not given here.

How the values were obtained:
mice = conditions: oral administration, 100 mg per kg; cited from earlier work
[1] = format: physicochemical
Description: A solution of rebaudioside A (>97% pure by HPLC) was prepared in double distilled water (12.5 gm in 50 mL, 25% concentration) by stirring the mixture at 40° C. for 5 minutes. An amorphous form of rebaudioside A was formed by immediately using the clear solution for spray drying with the Lab-Plant spray drier SD-04 instrument (Lab-Plant Ltd., West Yorkshire, U.K.). The solution was fed through the feed pump into the nozzle atomizer which atomized it into a spray of droplets with the help of a constant flow of nitrogen/air. […] This dry powder (11-12 g, H2O 6.74%) was discharged continuously from the drying chamber and was collected in a bottle.

[2] = Rate of dissolution of rebaudioside A polymorph and amorphous forms in H2O at 25° C.; format: physicochemical
[3] = Sensory evaluation of sweetness linger by expert panel, Example Set G (citric acid/potassium citrate lemon-lime base); format: in vivo; design: key: 0: no sweetness linger; 1: very slight sweetness linger; 2: slight sweetness linger; 3: moderate sweetness linger; 4: moderately high sweetness linger; 5: high sweetness linger; conditions: scale 0-5; for sweetness linger rating of control samples: 400 ppm REBA in citric acid/potassium citrate composition, 8 g sugar in 100 ml citrate buffer; for Sweetness Linger rating (defined anchors of the protocol): sucrose, 500 ppm REBA control sample
Description: Sensory evaluation of the samples prepared in Example Set G was carried out under the following protocol, similar to that described hereinabove. In this test protocol, none of the samples were swallowed. All samples were expectorated and the mouth was rinsed with water after the tasting. Immediately upon sensing maximal sweetness, the sample was expectorated, the mouth was rinsed with water and the rate of sweetness decay (“Sweetness Linger”) was measured, where attention was focused on the sweetness 3-4 min after the water rinse. After sample tasting was complete, a salty oyster cracker was chewed followed by a water rinse, and at least 5 minutes followed before tasting the next sample. The sweetness linger was rated by a panel of experts in the sensory evaluation of foods and beverages using the following scale: 0=no sweetness linger, 1=very slight sweetness linger, 2=slight sweetness linger, 3=moderate sweetness linger, 4=moderately high sweetness linger, 5=high sweetness linger.
The “Sweetness Linger” rating for sucrose observed by this protocol is defined as 0. The Sweetness Linger of a 500 ppm of REBA control sample is defined as 5. Experimental samples were tasted by the same protocol, always allowing sufficient time between samples to ensure re-equilibration of the sensory system. Re-tasting of control samples during the course of the experiment was allowed and encouraged.
The comparison taste test was performed between two controls and addition of sweet taste improving additive on the onset and/or sweetness linger.
The effects of formulation change on the sweetness linger of 400 ppm REBA (equivalent to 8 g sucrose) in a citric acid/potassium citrate composition equivalent to that in a diet lemon-lime beverage were evaluated. The sweetness linger rating of this solution was determined to be 5.
8 g of sugar was dissolved in 100 ml of citrate buffer. The sweetness linger rating of this control sample was determined to be 0.

[4] = Sensory evaluation of sweetness linger by expert panel, Example Set H (phosphoric acid solution pH 2.4-2.5); format: in vivo; design: key: 0: no sweetness linger; 1: very slight sweetness linger; 2: slight sweetness linger; 3: moderate sweetness linger; 4: moderately high sweetness linger; 5: high sweetness linger; conditions: scale 0-5; 500 ppm REBA or 10 g sugar in 100 ml, carbon-treated water, phosphoric acid pH 2.4-2.5

Rate of dissolution in H2O at 25° C. ([2]; H2O, 25° C.) | Rate of dissolution in H2O at 25° C. ([2]; grade in words) | Molecule | also measured
– | – | YPLDLF [rubiscolin-6] | memory consolidation (mice): enhanced memory consolidation
(>35.0%/5 %/5 minutes | High | rebaudioside A [Form 4] | solubility in water at room temperature [1]: > 35.0%
(<30%/5 %/5 minutes | Intermediate | rebaudioside A [Form 2] | –
– | – | rebaudioside A | sweetness linger rating of control samples [3]: 5; Sweetness Linger rating (defined anchors of the protocol) [3]: 5; sweetness linger rating of control samples [4]: 5
(<0.2%/60 %/60 minutes | Very low | rebaudioside A [Form 1] | –
– | – | OC[C@H]1O[C@@](CO)(O[C@H]2O[C@H](CO)[C@@H](O)[C@H](O)[C@H]2O)[C@@H](O)[C@@H]1O [sucrose] | sweetness linger rating of control samples [3]: 0; Sweetness Linger rating (defined anchors of the protocol) [3]: 0; sweetness linger rating of control samples [4]: 0
(>30%/5 %/5 minutes | High | rebaudioside A [Form 3] | –
